US12187717B2, “Compound and use thereof in treating autoimmune diseases” (PARENCHYMA BIOTECH INC., priority 2022, dated 2025)
Like-named read-outs stand apart in the source and are kept apart here.

Assays:
CYP1A2 = biological target: T1, CYP1A2 (Homo sapiens, UniProt P05177); experiment: CYP isoenzyme activity; format: in vitro ADME; conditions: 10 μM
T1 sequence (P05177 1-516): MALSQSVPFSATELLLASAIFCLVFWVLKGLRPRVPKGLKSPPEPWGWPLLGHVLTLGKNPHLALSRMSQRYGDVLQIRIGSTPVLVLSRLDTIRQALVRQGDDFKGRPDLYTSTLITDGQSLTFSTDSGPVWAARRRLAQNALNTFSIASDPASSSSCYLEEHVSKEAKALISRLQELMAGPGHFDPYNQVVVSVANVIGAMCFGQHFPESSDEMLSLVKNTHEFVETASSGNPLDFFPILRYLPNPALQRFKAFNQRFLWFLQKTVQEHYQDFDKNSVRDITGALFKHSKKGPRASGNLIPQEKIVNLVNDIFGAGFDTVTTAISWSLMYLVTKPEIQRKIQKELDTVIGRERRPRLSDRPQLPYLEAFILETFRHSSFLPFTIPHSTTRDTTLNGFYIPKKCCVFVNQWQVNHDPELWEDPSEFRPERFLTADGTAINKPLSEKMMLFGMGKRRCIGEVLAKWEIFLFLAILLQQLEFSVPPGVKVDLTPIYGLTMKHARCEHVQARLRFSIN

CYP1A1 = experiment: Induction of CYP1A1 mRNA expression in HepG2 (real-time PCR); format: cell-based, Human; conditions: HepG2, 1 μM, 24 hours, vs control (vehicle)
Description: In order to confirm target specificity of the compounds of an embodiment of the present invention prepared as above, it was confirmed whether the expression levels of CYP1A1 mRNA and CYP1A1 protein, which are AHR target genes, were increased.
After recovering HepG2 under culture in DMEM-fetal bovine serum (FBS) 10% medium and then confirming that the survival rate is 97% or more through trypan blue staining, the recovered product was centrifuged at a speed of 1200 rpm for 5 minutes at room temperature, and the cells were prepared by resuspending them in DMEM-fetal calf serum 10% medium at 3×10^5 cells/ml. Thereafter, the cells were dispensed onto a 60 mm dish by 3 ml, and each dish was treated with 50 μl of Compounds 6, 21, 32 and 39 at a concentration of 1 μM diluted in DMEM medium, and then cultured in a cell incubator (5% CO2 incubator) for 24 hours. As a control, 50 μl of 0.05% dimethylsulfoxide (DMSO)/DMEM medium was used for treatment.
The cultured cells were recovered to prepare an mRNA sample. […] From the separated RNA, cDNA was synthesized by reverse transcription, and the expression of CYP1A1 was confirmed through a real-time polymerase chain reaction (PCR) using iQ SYBR-Green Supermix (Bio-rad) in a CFX96 (Bio-rad) detection system. […] Herein, one (1) fold was set using the control.
The real-time polymerase chain reaction was performed under the conditions of 45 cycles at an annealing temperature of 58° C., wherein the following primer sequences were used.

CYP2D6 = CYP2D6 (Homo sapiens, UniProt P10635); conditions: 2 days, 10 μM
Sequence of CYP2D6 (P10635 whole entry): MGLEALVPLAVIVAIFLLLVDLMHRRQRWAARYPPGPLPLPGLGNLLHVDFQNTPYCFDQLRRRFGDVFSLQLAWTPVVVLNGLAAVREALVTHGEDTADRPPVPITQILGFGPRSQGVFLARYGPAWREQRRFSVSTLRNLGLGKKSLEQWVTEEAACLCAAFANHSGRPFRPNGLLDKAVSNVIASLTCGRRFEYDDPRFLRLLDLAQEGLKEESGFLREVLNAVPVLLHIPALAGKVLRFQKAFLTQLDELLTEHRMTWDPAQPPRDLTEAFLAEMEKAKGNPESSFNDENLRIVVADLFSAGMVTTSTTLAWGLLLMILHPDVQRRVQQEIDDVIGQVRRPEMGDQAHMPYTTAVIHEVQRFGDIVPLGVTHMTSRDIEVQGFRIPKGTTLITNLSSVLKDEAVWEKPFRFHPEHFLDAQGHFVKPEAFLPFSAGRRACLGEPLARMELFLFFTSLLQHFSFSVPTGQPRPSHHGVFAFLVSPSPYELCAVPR

[1] = system: intestinal epithelial barrier integrity; experiment: Mucosal healing with FITC-dextran in DSS-induced inflammatory bowel disease model; format: in vivo, C57BL/6 mice; conditions: 10 mg/kg oral daily, 15th day, 4 hours after FITC-dextran, compared to solvent control
Description: In order to investigate mucosal healing effects of the compounds according to an embodiment of the present invention, inflammatory bowel disease was induced in C57BL/6 mice, and a degree of recovery of intestinal epithelial harrier integrity was assessed by administering Compound 6 as follows. On day 0 of the experiment, a 2.0% DSS solution prepared by dissolving 2.0% DSS in sterile distilled water was given for drinking to C57BL/6 mice (11 weeks old, female, 20±2 g) for 7 days. The 2.0% DSS solution was changed at an interval of 2 days. Sterile distilled water was provided for drinking from the 8th day of the experiment. Body weight and severity index were measured at an interval of 2 days from the 0th day of the experiment, so as to confirm the onset of inflammatory bowel disease. […] 4 hours after oral administration, fluorescence was measured in the serum extracted from the heart (fluorometer, excitation 485490 nm, emission […]).

[2] = Pharmacokinetic parameters after oral or intravenous administration; format: in vivo; conditions: rats; for bioavailability: read-out: Bioavailability (F %); for increase of AUClast compared to Comparative Example 1 / increase of Cmax compared to Comparative Example 1: oral
Description: For rats, an oral administration group was fasted for 16 hours, and an intravenous administration group was subjected to intravenous administration with 10 mL/kg of solution prepared by completely dissolving Compound 6 in an ethanol-Cremophor EL mixture corresponding to 7.5% (v/v) of the administered dose, and then diluting in phosphate buffered saline so as to be the final ethanol:Cremophor EL:phosphate buffered saline (0.375:0.375:9.25, v/v/v), without fasting, at the dose concentration listed in Table 3. The oral administration group was supplied with food about 4 hours after administration. Blood collection was performed on the intravenous administration group after 0.083, 0.5, 1, 2, 4, 8, 24 hours from the administration and on the oral administration group after 0.5, 1, 2, 4, 8, 12, 24 hours from the administration, and plasma was recovered using centrifugation. In the recovered plasma, the drug concentration in the plasma was measured using UHPLC-MS/MS method.

[3] = rat, plasma, Intravenous (IV), 1 mg/kg
[4] = rat, plasma, Oral (PO), 10 mg/kg
[5] = rat, plasma, Oral (PO), 50 mg/kg
[6] = Oral (PO), 10 mg/kg (reference dose, dose ratio 1)
[7] = Oral (PO), 50 mg/kg relative to 10 mg/kg (dose ratio 5)
[8] = 10 mg/kg vs Comparative Example 1 at 10 mg/kg
[9] = 50 mg/kg vs Comparative Example 1 at 100 mg/kg

O=C(Cc1c[nH]c2ccc(Cl)cc12)Nc1nc2ccc(N3CCOCC3)cc2s1 [Compound 6, 2-(5-chloro-1H-indol-3-yl)-N-(6-morpholinobenzo[d]thiazol-2-yl)acetamide]
CYP1A2 activity (CYP1A2): 88.2 % of Control Activity
CYP1A1 mRNA expression level (CYP1A1): significantly induced
CYP2D6 activity (CYP2D6): 101.2 % of Control Activity
Serum FITC-dextran [1]: significantly decreased
AUC(0-t) [2, 3]: 1160 ng·h/mL
C0 [2, 3]: 1420 ng/mL
clearance [2, 3]: 14.4 mL/min/kg
half-life [2, 3]: 1.04 h
Vd ([2]; rat, plasma, Intravenous (IV), 1 mg/kg, read-out: Vdss): 0.924 L/kg
AUC(0-t) [2, 4]: 4350 ng·h/mL
Cmax [2, 4]: 742 ng/mL
Tmax [2, 4]: 2 h
half-life [2, 4]: 2 h
bioavailability [2, 4]: 37.3%
AUC(0-t) [2, 5]: 43100 ng·h/mL
Cmax [2, 5]: 4590 ng/mL
Tmax [2, 5]: 4 h
half-life [2, 5]: 3.83 h
bioavailability [2, 5]: 73.9%
AUClast Ratio [2, 6]: 1.0
Cmax ratio [2, 6]: 1.0
AUClast Ratio [2, 7]: 9.9
Cmax ratio [2, 7]: 6.2
increase of AUClast compared to Comparative Example 1 [2, 8]: 5.9 times
increase of Cmax compared to Comparative Example 1 [2, 8]: 11.9 times
increase of AUClast compared to Comparative Example 1 [2, 9]: 66.8 times
increase of Cmax compared to Comparative Example 1 [2, 9]: 30.2 times
